Reference: the supplement of paper PMC11208160

Experiment: recombinant barcode read abundance after kanamycin selection (control-corrected) (log10(CPM+1)); higher = more efficient recombination; sequences stand for … in AGTGCAGAGAAAATCGGCCAGTTTTCTCTGCCTGCAGTCCGCATGCCGT…ATTTATGCAGCGGACTGCCTTTCTCCCAAAGTGATAAACCGGACAGTATCATGGACCGGTTTTCCCGGTAATCCGTATTTGCAAGGTTGGTTTCACT; site = the 11-nt target
In short: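 Targets were screened in pooled form in E. coli against IS621 bridge RNA target-binding loops. Recombination efficiency is based on barcode counts at recombinant junctions in counts per million, averaged and corrected for the control. Numbers are shown as log10(CPM+1), with duplicate plates on chloramphenicol/ampicillin LB agar (control) or chloramphenicol/ampicillin/kanamycin with 0.1 mM IPTG.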

| Sequence | recombinant barcode read abundance (log10) |
| --- | --- |
| CGAGCCCCTTGGGTTCTAACCTGTTGCTGCT [CGAGCCCCTCA_LTGcore_CT_RTGcore_AG] (site CGAGCCCCTCA) (LTG core: CT, RTG core: AG) | 0.203 |
| CGAGCCCCTTGGGTTCTAACCTGTTGCTGGT [CGAGCCCCTCA_LTGcore_CT_RTGcore_AC] (site CGAGCCCCTCA) (LTG core: CT, RTG core: AC) | 1.21 |
| CGAGCCCTTTGGGTTCTAACCTGTTGCTGAG [CGAGCCCCTCA_LTGcore_TT_RTGcore_CT] (site CGAGCCCCTCA) (LTG core: TT, RTG core: CT) | 0.048 |
| CGCGCCCAGTGGGTTCTAACCTGTTGCGGCT [CGCGCCCCTCC_LTGcore_AG_RTGcore_AG] (site CGCGCCCCTCC) (LTG core: AG, RTG core: AG) | 0.0334 |
| CGCGCCCATTGGGTTCTAACCTGTTGCGGAG [CGCGCCCCTCC_LTGcore_AT_RTGcore_CT] (site CGCGCCCCTCC) (LTG core: AT, RTG core: CT) | 0.0641 |
| CGCGCCCCTTGGGTTCTAACCTGTTGCGGAG [CGCGCCCCTCC_LTGcore_CT_RTGcore_CT] (site CGCGCCCCTCC) (LTG core: CT, RTG core: CT) | 0.131 |
| CGCGCCCCTTGGGTTCTAACCTGTTGCGGCA [CGCGCCCCTCC_LTGcore_CT_RTGcore_TG] (site CGCGCCCCTCC) (LTG core: CT, RTG core: TG) | 0 |
| CGCGCCCCTTGGGTTCTAACCTGTTGCGGGC [CGCGCCCCTCC_LTGcore_CT_RTGcore_GC] (site CGCGCCCCTCC) (LTG core: CT, RTG core: GC) | 0.592 |
| CGCGCCCCTTGGGTTCTAACCTGTTGCGGTA [CGCGCCCCTCC_LTGcore_CT_RTGcore_TA] (site CGCGCCCCTCC) (LTG core: CT, RTG core: TA) | 0.602 |
| CGCGCCCGATGGGTTCTAACCTGTTGCGGTC [CGCGCCCCTCC_LTGcore_GA_RTGcore_GA] (site CGCGCCCCTCC) (LTG core: GA, RTG core: GA) | 0.158 |
| CGCGCCCGGTGGGTTCTAACCTGTTGCGGAG [CGCGCCCCTCC_LTGcore_GG_RTGcore_CT] (site CGCGCCCCTCC) (LTG core: GG, RTG core: CT) | 0.557 |
| CGCGCCCTATGGGTTCTAACCTGTTGCGGAG [CGCGCCCCTCC_LTGcore_TA_RTGcore_CT] (site CGCGCCCCTCC) (LTG core: TA, RTG core: CT) | 0.334 |
| CGCGCCCTTTGGGTTCTAACCTGTTGCGGAG [CGCGCCCCTCC_LTGcore_TT_RTGcore_CT] (site CGCGCCCCTCC) (LTG core: TT, RTG core: CT) | 0.127 |
| CGGTCCCACTGGGTTCTAACCTGTTGCCAGT [CGGTCCCCTTG_LTGcore_AC_RTGcore_AC] (site CGGTCCCCTTG) (LTG core: AC, RTG core: AC) | 0.19 |
| CGGTCCCAGTGGGTTCTAACCTGTTGCCAAG [CGGTCCCCTTG_LTGcore_AG_RTGcore_CT] (site CGGTCCCCTTG) (LTG core: AG, RTG core: CT) | 0.0476 |
| CGGTCCCATTGGGTTCTAACCTGTTGCCAAG [CGGTCCCCTTG_LTGcore_AT_RTGcore_CT] (site CGGTCCCCTTG) (LTG core: AT, RTG core: CT) | 1.07 |
| CGGTCCCCCTGGGTTCTAACCTGTTGCCAAG [CGGTCCCCTTG_LTGcore_CC_RTGcore_CT] (site CGGTCCCCTTG) (LTG core: CC, RTG core: CT) | 0.189 |
| CGGTCCCCTTGGGTTCTAACCTGTTGCCATG [CGGTCCCCTTG_LTGcore_CT_RTGcore_CA] (site CGGTCCCCTTG) (LTG core: CT, RTG core: CA) | 1.6 |
| CGGTCCCGTTGGGTTCTAACCTGTTGCCAAC [CGGTCCCCTTG_LTGcore_GT_RTGcore_GT] (site CGGTCCCCTTG) (LTG core: GT, RTG core: GT) | 0.229 |
| CGGTCCCTCTGGGTTCTAACCTGTTGCCAAG [CGGTCCCCTTG_LTGcore_TC_RTGcore_CT] (site CGGTCCCCTTG) (LTG core: TC, RTG core: CT) | 0.355 |
| CGGTCCCTCTGGGTTCTAACCTGTTGCCAGA [CGGTCCCCTTG_LTGcore_TC_RTGcore_TC] (site CGGTCCCCTTG) (LTG core: TC, RTG core: TC) | 0.174 |
| CGGTCCCTGTGGGTTCTAACCTGTTGCCACA [CGGTCCCCTTG_LTGcore_TG_RTGcore_TG] (site CGGTCCCCTTG) (LTG core: TG, RTG core: TG) | 0.175 |
| CGGTCCCTTTGGGTTCTAACCTGTTGCCAAG [CGGTCCCCTTG_LTGcore_TT_RTGcore_CT] (site CGGTCCCCTTG) (LTG core: TT, RTG core: CT) | 0.0132 |

| Sequence | recombinant barcode read abundance (log10) |
| --- | --- |
| GAGCCCACTTGGGTTCTAACCTGTTGCCTAT [GAGCCCACTAG_LTGcore_CT_RTGcore_AT] (site GAGCCCACTAG) (LTG core: CT, RTG core: AT) | 0.41 |
| GAGCCCAGCTGGGTTCTAACCTGTTGCCTGC [GAGCCCACTAG_LTGcore_GC_RTGcore_GC] (site GAGCCCACTAG) (LTG core: GC, RTG core: GC) | 0.0674 |
| GAGCCCAGGTGGGTTCTAACCTGTTGCCTAG [GAGCCCACTAG_LTGcore_GG_RTGcore_CT] (site GAGCCCACTAG) (LTG core: GG, RTG core: CT) | 0.181 |
| GAGCCCAGTTGGGTTCTAACCTGTTGCCTAG [GAGCCCACTAG_LTGcore_GT_RTGcore_CT] (site GAGCCCACTAG) (LTG core: GT, RTG core: CT) | 0.0941 |
| GAGCCCATATGGGTTCTAACCTGTTGCCTTA [GAGCCCACTAG_LTGcore_TA_RTGcore_TA] (site GAGCCCACTAG) (LTG core: TA, RTG core: TA) | 0.338 |
| GAGCCCATCTGGGTTCTAACCTGTTGCCTAG [GAGCCCACTAG_LTGcore_TC_RTGcore_CT] (site GAGCCCACTAG) (LTG core: TC, RTG core: CT) | 0.102 |
| GAGCCCATTTGGGTTCTAACCTGTTGCCTAA [GAGCCCACTAG_LTGcore_TT_RTGcore_TT] (site GAGCCCACTAG) (LTG core: TT, RTG core: TT) | 0.178 |
| GAGGCCTCCTGGGTTCTAACCTGTTGCCAGG [GAGGCCTCTTG_LTGcore_CC_RTGcore_CC] (site GAGGCCTCTTG) (LTG core: CC, RTG core: CC) | 0.215 |
| GAGGCCTCTTGGGTTCTAACCTGTTGCCAAA [GAGGCCTCTTG_LTGcore_CT_RTGcore_TT] (site GAGGCCTCTTG) (LTG core: CT, RTG core: TT) | 0.822 |
| GAGGCCTCTTGGGTTCTAACCTGTTGCCAAT [GAGGCCTCTTG_LTGcore_CT_RTGcore_AT] (site GAGGCCTCTTG) (LTG core: CT, RTG core: AT) | 0 |
| GAGGCCTCTTGGGTTCTAACCTGTTGCCACC [GAGGCCTCTTG_LTGcore_CT_RTGcore_GG] (site GAGGCCTCTTG) (LTG core: CT, RTG core: GG) | 0.236 |
| GAGGCCTCTTGGGTTCTAACCTGTTGCCACG [GAGGCCTCTTG_LTGcore_CT_RTGcore_CG] (site GAGGCCTCTTG) (LTG core: CT, RTG core: CG) | 0.128 |
| GAGGCCTCTTGGGTTCTAACCTGTTGCCATT [GAGGCCTCTTG_LTGcore_CT_RTGcore_AA] (site GAGGCCTCTTG) (LTG core: CT, RTG core: AA) | 0.0215 |
| GAGGCCTTTTGGGTTCTAACCTGTTGCCAAG [GAGGCCTCTTG_LTGcore_TT_RTGcore_CT] (site GAGGCCTCTTG) (LTG core: TT, RTG core: CT) | 0.0682 |
| GAGTCCAAGTGGGTTCTAACCTGTTGCGTCT [GAGTCCACTAC_LTGcore_AG_RTGcore_AG] (site GAGTCCACTAC) (LTG core: AG, RTG core: AG) | 0.0337 |
| GAGTCCACCTGGGTTCTAACCTGTTGCGTAG [GAGTCCACTAC_LTGcore_CC_RTGcore_CT] (site GAGTCCACTAC) (LTG core: CC, RTG core: CT) | 0.172 |
| GAGTCCACGTGGGTTCTAACCTGTTGCGTCG [GAGTCCACTAC_LTGcore_CG_RTGcore_CG] (site GAGTCCACTAC) (LTG core: CG, RTG core: CG) | 0.405 |
| GAGTCCACTTGGGTTCTAACCTGTTGCGTCT [GAGTCCACTAC_LTGcore_CT_RTGcore_AG] (site GAGTCCACTAC) (LTG core: CT, RTG core: AG) | 0 |
| GAGTCCACTTGGGTTCTAACCTGTTGCGTGT [GAGTCCACTAC_LTGcore_CT_RTGcore_AC] (site GAGTCCACTAC) (LTG core: CT, RTG core: AC) | 0.0606 |
| GAGTCCACTTGGGTTCTAACCTGTTGCGTTG [GAGTCCACTAC_LTGcore_CT_RTGcore_CA] (site GAGTCCACTAC) (LTG core: CT, RTG core: CA) | 0 |
| GAGTCCAGATGGGTTCTAACCTGTTGCGTAG [GAGTCCACTAC_LTGcore_GA_RTGcore_CT] (site GAGTCCACTAC) (LTG core: GA, RTG core: CT) | 0.294 |
| GAGTCCAGCTGGGTTCTAACCTGTTGCGTGC [GAGTCCACTAC_LTGcore_GC_RTGcore_GC] (site GAGTCCACTAC) (LTG core: GC, RTG core: GC) | 0.174 |
